In ChEMBL document CHEMBL1759886, “Biological evaluation of phenolic constituents from the trunk of Berberis koreana” (Bioorg Med Chem Lett, 2011):

Experiments:
Assay type in all cases: functional, cell-based
SK-OV-3 = assay: Anticancer activity against human SKOV3 cells by SRB assay
A549 = assay: Anticancer activity against human A549 cells by SRB assay
SK-MEL-2 = assay: Anticancer activity against human SK-MEL-2 cells by SRB assay
XF498 = assay: Anticancer activity against human XF498 cells by SRB assay
BV-2 = assay: Antiinflammatory activity in mouse BV2 cells assessed as inhibition of lipopolysaccharide induced NO production

Compound | IC50 (SK-OV-3) | IC50 (A549) | IC50 (SK-MEL-2) | IC50 (XF498) | IC50 (BV-2)
COc1cc([C@@H]2c3c(cc(OC)c(O)c3OC)C[C@H](CO)[C@H]2CO)cc(OC)c1O | > 30 µM | 21.2 µM | > 30 µM | 26.5 µM | 113 µM
COc1ccc([C@H](O)[C@@H](CO)Oc2c(OC)cc([C@@H]3Oc4c(OC)cc(CCCO)cc4[C@H]3CO)cc2OC)cc1OC [BERBIKONOL] | > 30 µM | > 30 µM | 27.3 µM | 19.3 µM | 90.9 µM
COc1cc([C@@H](O)[C@@H](CO)Oc2ccc(CCCO)cc2OC)ccc1O | > 30 µM | > 30 µM | > 30 µM | 26.6 µM | 58.5 µM
COc1cc(C[C@H]2COC(=O)[C@@H]2Cc2ccc(O)c(OC)c2)ccc1O [MATAIRESINOL] | > 30 µM | 23.8 µM | > 30 µM | 23.7 µM | 94.5 µM
COc1cc([C@@H]2OC[C@@H]3[C@H]2CO[C@H]3c2cc(OC)c(O)c(OC)c2)cc(OC)c1O | > 30 µM | > 30 µM | 14.5 µM | 8.82 µM | 13.5 µM
COc1cc(C(=O)CCO)ccc1O | > 30 µM | > 30 µM | > 30 µM | 28.4 µM | –
COc1cc(C(=O)O)ccc1O [VANILLIC ACID] | > 30 µM | > 30 µM | > 30 µM | > 30 µM | –
COc1cc([C@@H]2OC[C@@H]3[C@H]2CO[C@H]3c2ccc(O[C@@H]3O[C@H](CO)[C@@H](O)[C@H](O)[C@H]3O)c(OC)c2)ccc1O | > 30 µM | > 30 µM | > 30 µM | 25.4 µM | 144 µM
COc1cc([C@H]2c3c(cc(OC)c(O)c3OC)C[C@@H](CO)[C@@H]2CO)cc(OC)c1O | > 30 µM | > 30 µM | > 30 µM | 7.14 µM | 69.1 µM
COc1cc([C@@H]2c3cc(O)c(OC)cc3C[C@H](CO)[C@H]2CO)ccc1O [(-)-ISOLARICIRESINOL] | > 30 µM | 20.2 µM | 24.9 µM | 22.8 µM | 152 µM
COc1ccc(CC(=O)O)cc1 | > 30 µM | > 30 µM | > 30 µM | 28.1 µM | –
COc1ccc(C[C@H]2CO[C@H](c3ccc(OC)c(OC)c3)[C@H]2CO)cc1OC | 21.5 µM | 20.1 µM | 25.1 µM | 15.4 µM | 44.4 µM
CNC(=N)NCCC[C@H](N)C(=O)O [TILARGININE] | – | – | – | – | 17.1 µM
COc1cc(C[C@H]2CO[C@H](c3ccc(O)c(OC)c3)[C@H]2CO)ccc1O [LARICIRESINOL] | > 30 µM | 24.5 µM | > 30 µM | 11.7 µM | 51.8 µM
COc1cc(C[C@@H](CO)[C@](O)(CO)Cc2ccc(O)c(OC)c2)ccc1O | > 30 µM | > 30 µM | > 30 µM | 27.6 µM | 201 µM
COc1cc(/C=C/C=O)ccc1O [CONIFERYL ALDEHYDE] | > 30 µM | 21.2 µM | > 30 µM | > 30 µM | –
COc1cc([C@H]2Oc3c(OC)cc(CCCO)cc3[C@@H]2CO)ccc1O [DIHYDRODEHYDRODICONIFERY ALCOHOL] | > 30 µM | 22.4 µM | 23.3 µM | 13.4 µM | 28.8 µM
COc1cc(C[C@@H](CO)[C@H](CO)Cc2ccc(O)c(OC)c2)ccc1O [(+)-SECOISOLARICIRESINOL] | > 30 µM | > 30 µM | 21.5 µM | 18.8 µM | 87.6 µM
COc1cc([C@@H]2OC[C@H]3[C@@H]2CO[C@H]3c2ccc(O)c(OC)c2)ccc1O [(-)-PINORESINOL] | > 30 µM | > 30 µM | 26.6 µM | 13.3 µM | 26.2 µM
COc1cc(C(=O)CCO)cc(OC)c1O | > 30 µM | > 30 µM | > 30 µM | 24.3 µM | –
COc1cc([C@@H]2c3cc4c(cc3[C@@H](O[C@@H]3O[C@@H]5CO[C@@H](C)O[C@H]5[C@H](O)[C@H]3O)[C@H]3COC(=O)[C@H]23)OCO4)cc(OC)c1O [ETOPOSIDE] | 1.81 µM | – | – | – | –
COC(=O)[C@H](CO)c1cc(OC)c(O)c(OC)c1 [BERFUSSINOL] | > 30 µM | > 30 µM | 27.2 µM | > 30 µM | –
